The CheMixHub viscosity set

Test: xn = mol fraction of the nth substance listed

CC[n+]1ccccc1.N#C[N-]C#N + CCCO
Conditions	viscosity [mPa·s]
313.15 K, 100 kPa, x1 = 0.8905	9.945

CNc1ccccc1 + CCCO
viscosity [mPa·s], 101.33 kPa
Conditions	x1 = 0.1008	x1 = 0.1995	x1 = 0.2999	x1 = 0.4015	x1 = 0.5012	x1 = 0.6016	x1 = 0.7016	x1 = 0.8003	x1 = 0.9016
303.15 K	1.608	1.532	1.502	1.494	1.502	1.527	1.551	1.61	1.688
308.15 K	1.433	1.37	1.345	1.337	1.347	1.368	1.392	1.446	1.512
313.15 K	1.29	1.235	1.21	1.204	1.219	1.235	1.26	1.306	1.347
318.15 K	1.161	1.116	1.096	1.092	1.097	1.123	1.145	1.188	1.247
323.15 K	1.051	1.01	1	0.9995	1.012	1.026	1.047	1.091	1.142

COC(=O)OC + CCCO
101.3 kPa
Conditions	viscosity [mPa·s]
293.15 K, x1 = 0.0508	1.875
293.15 K, x1 = 0.0875	1.683
293.15 K, x1 = 0.1647	1.362
293.15 K, x1 = 0.2944	1.024
293.15 K, x1 = 0.3858	0.885
293.15 K, x1 = 0.544	0.751
293.15 K, x1 = 0.6026	0.716
293.15 K, x1 = 0.7041	0.666
293.15 K, x1 = 0.89	0.61
293.15 K, x1 = 0.9015	0.606
293.15 K, x1 = 0.951	0.608
298.15 K, x1 = 0.0517	1.675
298.15 K, x1 = 0.0898	1.493
298.15 K, x1 = 0.1903	1.147
298.15 K, x1 = 0.2896	0.936
298.15 K, x1 = 0.3944	0.803
298.15 K, x1 = 0.498	0.725
298.15 K, x1 = 0.5993	0.673
298.15 K, x1 = 0.7016	0.631
298.15 K, x1 = 0.8007	0.598
298.15 K, x1 = 0.8994	0.579
298.15 K, x1 = 0.949	0.576
303.15 K, x1 = 0.0728	1.404
303.15 K, x1 = 0.0829	1.367
303.15 K, x1 = 0.184	1.072
303.15 K, x1 = 0.2605	0.919
303.15 K, x1 = 0.3758	0.769
303.15 K, x1 = 0.4849	0.685
303.15 K, x1 = 0.6278	0.613
303.15 K, x1 = 0.7071	0.594
303.15 K, x1 = 0.8061	0.569
303.15 K, x1 = 0.9018	0.554
303.15 K, x1 = 0.9507	0.542
313.15 K, x1 = 0.0498	1.198
313.15 K, x1 = 0.0973	1.066
313.15 K, x1 = 0.1985	0.86
313.15 K, x1 = 0.3015	0.721
313.15 K, x1 = 0.4025	0.639
313.15 K, x1 = 0.5021	0.584
313.15 K, x1 = 0.6029	0.546
313.15 K, x1 = 0.7038	0.521
313.15 K, x1 = 0.8033	0.5
313.15 K, x1 = 0.9073	0.489
313.15 K, x1 = 0.951	0.489
